Experimental data: article PMC12567082, “Silver(I) Complexes Bearing S-Alkyl Thiosalicylic Acid Derivatives: DNA/BSA Binding and Antitumor Activity In Vitro and In Vivo” (Pharmaceutics, 2025)

Columns and labels:
CT-DNA [1] = test: UV-Vis absorption titration with CT-DNA; format: binding, calf; settings: ΔG = −RT lnKb
Experimental: All DNA-binding studies were conducted in 0.01 M phosphate-buffered saline (PBS, pH 7.40) at 25 °C. […] To eliminate absorbance from CT-DNA, identical amounts of DNA were added to both the test and reference solutions prior to spectral recording.
Intrinsic binding constants (Kb) were calculated using the equation to determine the DNA-binding affinities of the complexes (1):[DNA]/(εa − εf) = [DNA]/(εb − εf) + 1 [Kb(εb − εf)](1)
[DNA] represents the concentration of DNA; apparent extinction coefficient, εa, was calculated as the ratio of the observed absorbance to the concentration of the complex (Aobs/[complex]); and εb and εf correspond to the extinction coefficients of the complex in the fully bound and free forms, respectively. Kb was determined from the ratio of the slope to the intercept obtained from the corresponding linear plots.

CT-DNA [2] = test: EB–CT-DNA fluorescence quenching; format: binding, calf; settings: EB–CT-DNA 8.52 × 10^−5 M, PBS pH 7.4
Experimental: All samples were prepared in phosphate-buffered saline (PBS, pH 7.4). Stern–Volmer Equation (2) was used to interpret the fluorescence quenching data.

CT-DNA [3] = test: Viscosity measurements of DNA solution; set-up: species or system calf; settings: up to r = 1.0, 8 µM DNA
Experimental: Viscosity measurements were performed to evaluate the interaction of C2 and C4 with DNA. The flow time was measured with a digital stopwatch. For each concentration, six replicate measurements were taken, and the average flow time was used for analysis. The data were presented as (η/η0)^1/3 against r, where η is the viscosity of DNA in the presence of complex, and η0 is the viscosity of DNA alone in the buffered solution. The viscosity value was calculated from the observed flow time of DNA-containing solution (t) corrected for the flow time of buffer alone (t0), η = (t − t0)/t0.

BSA = molecular target: T1, BSA (Bos taurus, UniProt P02769); test: BSA tryptophan fluorescence quenching; format: binding, bovine
T1 construct: purchased Sigma-Aldrich
T1 sequence (P02769 25-607): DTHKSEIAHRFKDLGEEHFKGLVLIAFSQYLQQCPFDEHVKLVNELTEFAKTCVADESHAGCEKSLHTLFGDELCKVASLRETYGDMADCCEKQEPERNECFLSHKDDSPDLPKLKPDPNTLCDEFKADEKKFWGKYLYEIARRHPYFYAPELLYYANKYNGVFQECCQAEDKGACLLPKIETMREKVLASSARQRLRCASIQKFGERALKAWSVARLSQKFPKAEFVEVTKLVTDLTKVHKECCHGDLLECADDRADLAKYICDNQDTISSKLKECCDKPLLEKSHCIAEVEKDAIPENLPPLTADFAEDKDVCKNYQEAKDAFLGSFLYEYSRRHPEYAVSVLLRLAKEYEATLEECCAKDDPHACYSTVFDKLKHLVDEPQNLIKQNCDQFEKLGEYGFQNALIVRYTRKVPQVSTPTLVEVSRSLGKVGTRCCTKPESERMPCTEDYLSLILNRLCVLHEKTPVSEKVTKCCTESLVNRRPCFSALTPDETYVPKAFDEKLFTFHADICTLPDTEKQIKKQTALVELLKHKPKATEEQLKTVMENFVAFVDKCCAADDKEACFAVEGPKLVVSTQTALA
Experimental: The protein binding study was carried out using tryptophan fluorescence quenching experiments with BSA. […] Fluorescence emission spectra were recorded between 300 and 500 nm, with excitation at 295 nm.
The quenching constant Ksv was determined based on the Stern–Volmer relationship, as described by Equation (3):I0/I = 1 + kqτ0[Q] = 1 + Ksv[Q](3)
In this equation, I0 and I refer to the fluorescence intensities of BSA measured without and with the quencher (complex), τ0 represents the average fluorescence lifetime of free BSA (∼10^−8 s), and [Q] indicates the quencher concentration.
Parameters such as association binding constant (K) and the number of binding sites per albumin (n) were obtained from Scatchard Equation (4):(ΔI/I0)/[Q] = nK − KΔI/I0(4)
To minimize inner filter, both intensities of fluorescence originating from excitation and emission light absorption and re-absorption were corrected by employing Equation (5); Icor and Iobs are the corrected and observed fluorescence intensities, respectively, and Aex and Aem represent the absorbance of the metal complex at the excitation and emission wavelengths, respectively.Icor = Iobs · […]^(Aex + Aem)/2(5)

[4] = system: Mouse breast cancer (4T1); test: MTT assay 4T1; format: cell-based; settings: 4T1, 48 h
Experimental: (§1) Mouse breast cancer (4T1), human breast cancer (MDA-MB-468), mouse colon cancer (CT26), human colon cancer (HCT-116), mouse lung cancer (LLC1), human lung cancer (A549), mouse mesenchymal stem cells (mMSC), and human fibroblast cell lines (MRC-5) were used in this study and were consistently cultured in complete Dulbecco’s Modified Eagle Medium (DMEM) (Sigma-Aldrich, St. Louis, MO, USA) in incubator (5% CO2) under standard conditions. Complete DMEM was Dulbecco’s Modified Eagle Medium supplemented with 10% fetal bovine serum (FBS), 1 mmol/L penicillin–streptomycin, 1 mmol/L mixed nonessential amino acids, and 2 mmol/L L-glutamine (Sigma-Aldrich, St. Louis, MO, USA). All cancer cell lines and MRC-5 cell line were obtained from American Type Culture Collection (ATCC, Manassas, VA, USA), but mMSC was manufactured by Gibco (Middlesex County, MA, USA).
(§2) In 96-well microplates, we seeded cancer and non-cancer cells, more exactly 5 × 10^3 cells per well in 100 μL of complete DMEM (Sigma-Aldrich, St. Louis, MO, USA). […] Tested concentration range for all metal-based substances was 3.9–500 μM. After incubation with MTT solution (5 mg/mL; pH 7.2) for 4 h, optical density was determined using Zenyth 3100 microplate multimode detector (Salzburg, Austria). All experiments were performed three times, each in triplicate, and the IC50 values as well as selectivity indexes (IC50 for mMSC or MRC-5/IC50 for mouse or human cancer cells) were calculated.

[5] = system: human breast cancer (MDA-MB-468); test: MTT assay MDA-MB-468; format: cell-based
Experimental: as §1, §2

mouse lung cancer (LLC1) = test: MTT assay LLC1; format: cell-based
Experimental: as §1, §2

human lung cancer (A549) = test: MTT assay A549; format: cell-based
Experimental: as §1, §2

[6] = system: mouse mesenchymal stem cells (mMSC); test: MTT assay mMSC; format: cell-based
Experimental: as §1, §2

[7] = system: human fibroblast cell lines (MRC-5); test: MTT assay MRC-5; format: cell-based
Experimental: as §1, §2

CT26 cells = test: Annexin V/PI apoptosis in CT26; format: cell-based, mouse; settings: 0.5 μM for 24 h
Experimental: (§3) The following supporting information can be downloaded at https://www.mdpi.com/article/10.3390/pharmaceutics17101340/s1. NMR and FTIR spectra of free ligands and complexes. Figure S1. […] Inset: Plot of [DNA]/(εA − εf) vs. [DNA]. Figure S2. Relative viscosity (η/η0) ^1/3 of CT-DNA (8 µM) in PBS buffer solution with the addition of increasing amounts (r) of C2 and C4 complexes. Figure S3. […] [EB] = 8.52 × 10^−5 M; [DNA] = 8.52 × 10^−5 M; [complex] = (0–6.82) × 10^−5; λex = 527 nm. Arrows show the intensity changes upon increasing the concentration of the complex. Inset graph: Plot of I0/I vs. [Q]. Figure S4. […] [BSA] = 2 μM; [complex] = 0–8 μM; λex = 295 nm. Arrows show the intensity changes upon increasing the concentration of the complex. Inset graph: Plot of I0/I vs. [Q]. Figure S5. […] Figure S6. Dose-dependent cytotoxicity of silver(I) complexes with S-alkyl derivatives of thiosalicylic acid. […] All data are presented as mean values ± SD from three independent experiments performed in triplicate. Figure S7. Dose-dependent cytotoxicity of S-alkyl derivatives of thiosalicylic acid. […] All data are presented as mean values ± SD from three independent experiments performed in triplicate. Figure S8. […] Apoptotic rates of C2-treated (0.5 μM for 24 h) as well as untreated CT26 and HCT116 cells were determined by flow cytometry using Annexin V (FITC) and PI double staining. […]

HCT116 cells = test: Annexin V/PI apoptosis in HCT116; format: cell-based, human; settings: 0.5 μM for 24 h
Experimental: as §3

## CCSc1ccccc1C(=O)[O][Ag].CCSc1ccccc1C(=O)[O][Ag] [C2, [Ag2(S-ethyl-thiosal)2]]
CT-DNA [1]
  ΔG (Gibbs free energy): -6.76 kcal/mol
CT-DNA [2]
  Ksv EB (Stern–Volmer constant): (1.1 ± 0.1) × 10^4 M^−1
CT-DNA [3]
  viscosity of CT-DNA: modest rise in the viscosity
BSA; BSA 2 µM
  kq (quenching rate constant): (1.4 ± 0.1) × 10^13 M^−1 s^−1
BSA; BSA 2 µM, λex 295 nm
  Ksv (Stern–Volmer constant): (1.4 ± 0.1) × 10^5 M^−1
BSA; Scatchard equation
  K (binding constant): (1.3 ± 0.1) × 10^5 M^−1
  n (number of binding sites): 1.1
[4]
  IC50: 4.84 ± 0.92 µM
  Selectivity Index (IC50 mMSC or MRC-5/ IC50 Cancer Cell): 0.93
[5]; MDA-MB-468, 24 h
  IC50: 8.67 ± 1.13 µM
  Selectivity Index (IC50 mMSC or MRC-5/ IC50 Cancer Cell): 4.39
[5]; MDA-MB-468, 48 h
  IC50: 5.43 ± 0.34 µM
  Selectivity Index (IC50 mMSC or MRC-5/ IC50 Cancer Cell): 7.95
Mouse lung cancer (LLC1); LLC1, 24 h
  IC50: 18.2 ± 0.93 µM
  Selectivity Index (IC50 mMSC or MRC-5/ IC50 Cancer Cell): 0.24
Mouse lung cancer (LLC1); LLC1, 48 h
  IC50: 20.2 ± 0.79 µM
  Selectivity Index (IC50 mMSC or MRC-5/ IC50 Cancer Cell): 0.22
Human lung cancer (A549); A549, 24 h
  IC50: 37.8 ± 1.01 µM
  Selectivity Index (IC50 mMSC or MRC-5/ IC50 Cancer Cell): 1.01
Human lung cancer (A549); A549, 48 h
  IC50: 50.2 ± 1.07 µM
  Selectivity Index (IC50 mMSC or MRC-5/ IC50 Cancer Cell): 0.86
[6]; 24 h
  IC50: 4.29 ± 0.92 µM
[6]; 48 h
  IC50: 4.52 ± 0.48 µM
[7]; MRC-5, 24 h
  IC50: 38 ± 1.91 µM
[7]; MRC-5, 48 h
  IC50: 43.2 ± 1.23 µM
CT26 cells
  apoptosis of CT26 cells: underwent apoptosis
HCT116 cells
  apoptosis of HCT116 cells: underwent apoptosis
